Measurements published in patent US11407725B2 (The Board of Trustees of the University of Illinois, priority 2018, dated 2022).

Columns and labels:
ALDH1A1 = target: T1, ALDH1A1 (Homo sapiens, UniProt P00352); assay: ALDH isoform selectivity of red probes: ALDH1A1; assay type: biochemical
T1 construct: made in house
T1 sequence (P00352 1-501): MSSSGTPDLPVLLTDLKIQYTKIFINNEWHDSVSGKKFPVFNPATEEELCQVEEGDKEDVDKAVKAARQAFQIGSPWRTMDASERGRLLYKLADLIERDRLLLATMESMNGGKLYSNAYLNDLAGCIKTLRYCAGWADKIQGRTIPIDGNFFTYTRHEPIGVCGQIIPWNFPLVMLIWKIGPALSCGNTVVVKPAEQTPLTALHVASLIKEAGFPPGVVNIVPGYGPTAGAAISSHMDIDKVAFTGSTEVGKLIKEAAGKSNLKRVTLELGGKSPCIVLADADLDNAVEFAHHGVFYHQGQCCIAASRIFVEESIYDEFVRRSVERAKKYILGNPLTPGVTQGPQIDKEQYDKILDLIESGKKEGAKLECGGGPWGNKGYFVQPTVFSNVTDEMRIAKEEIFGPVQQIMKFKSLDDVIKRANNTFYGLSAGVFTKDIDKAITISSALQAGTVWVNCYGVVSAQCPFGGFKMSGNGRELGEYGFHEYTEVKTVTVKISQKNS
Procedure: (§1) Each ALDH isoform was added to a 50 mM triethanolamine solution (pH 7.4) containing 2.0 mM NAD^+ and 100 μM substrate at room temperature. Benzaldehyde was the substrate for ALDH3A1. Propanal was the substrate for all other isoforms. ALDH isoform activity was determined by monitoring the rate of NADH production through the increase in absorbance at 340 nm (ε=6220 M^−1cm^−1). For these assays, 1 unit is defined as the amount of enzyme that catalyzes the conversion of […] per minute. For every combination of dye and enzyme, 2 μM dye was preincubated with 2.0 mM NAD^+ in 50 mM triethanolamine solution (pH 7.4). The reaction was initiated by addition of 1 unit of ALDH. Dyes were excited at 590 nm, and fluorescence was measured continuously at 610 nm.

[1] = test system: ALDH1A2, ALDH2, ALDH3A1, ALDH4A1, and ALDH5A1; assay: ALDH isoform selectivity of red-AlDeSense: other isoforms; assay type: biochemical, human; conditions: 2 μM dye
Procedure: as §1

Log D7.4 = assay type: physicochemical; conditions: pH 7.4
B16F0 melanoma cells = assay: B16F0 melanoma confocal imaging (e-CSC vs non-CSC); assay type: cell-based, murine
Procedure: B16F0 Melanoma Confocal Imaging. B16F0 murine melanoma cells were cultured for 5 days on polyacrylamide hydrogels with or without spiral patterns as described previously (Drug Discov Today 2014, 19, 1953). The coverslips on which the hydrogels and cells were mounted were transferred to a glass-bottomed dish for confocal imaging, leaving the cells intact. Solutions of either 2 μM AlDeSense AM or 2 μM Ctrl-AlDeSense AM in PBS were added to the two types of cells. The cells were incubated at room temperature for 1 h and then immediately imaged. Confocal imaging was performed on a Zeiss LSM700 Confocal Microscope, utilizing the 488 nm laser line to excite AlDeSense AM and the 20×/0.8 objective. Three different coverslips of cells were imaged for each set of conditions and at least 6 μmages were taken for each coverslip. Using ImageJ, ROIs were drawn around areas covered with cells and mean fluorescence values were measured for each image.

K562 cells = assay: Flow cytometry of K562 cells stained with AlDeSense; assay type: cell-based, human
Procedure: K562 cells were resuspended in PBS to a final concentration of 100,000 cells/mL. The suspension was divided into 0.5 mL aliquots and the cells were collected by centrifugation at 1000 rpm for 5 min at 4° C. Each sample was then resuspended in premixed AlDeSense AM or Ctrl-AlDeSense AM solutions (1.5 μM, PBS). For each dye, triplicate samples were prepared. Cells were incubated with dye for 30 minutes at room temperature with rocking to prevent cell clumping and ensure even dye distribution. At the end of the incubation period, cells were again collected by centrifugation at 1000 rpm for 5 min at 4° C. The dye solution was removed by aspiration, and each sample of cells were resuspended in 0.5 mL of PBS. The samples were immediately placed on ice until analysis. The samples were analyzed by a BD LSR II Flow Cytometry Analyzer using a 488 nm laser and a FITC filter. Data analyzed on FCS Express 6.04.
The day before imaging, Nunc™ Lab-Tek™ Chamber Slide™ systems (Thermo Fisher) were coated with poly-L-lysine (Trevigen) according to manufacturer's instructions. Cells were added to the chamber slides at a concentration of 400,000 cells/mL, yielding 90% confluent cells after 24 h. […] Images were analyzed using ImageJ software (Version 1.5 in).

Structure (SMILES) | turn-on response when treated with ALDH1A1 (ALDH1A1) [fold] | Enzyme Activity 1A1 (ALDH1A1; Table 2) | Enzymatic Turn On (ALDH1A1; Table 2, ALDH1A1, 2 μM dye) | cross-reactivity with ALDH1A2, ALDH2, ALDH3A1, ALDH4A1, ALDH5A1 [1] | logD (Log D7.4) | brightness of e-CSCs versus e-CSCs treated with Ctrl-AlDeSense (B16F0 melanoma cells) [fold] | brightness of e-CSCs versus non-CSCs (B16F0 melanoma cells; both stained with AlDeSense) [fold] | brightness of stained K562 cells versus AlDeSense with inhibitor or Ctrl-AlDeSense (K562 cells)
Cc1cc(C=O)c(F)c(F)c1C1=C2C=CC(=O)C=C2[Si](C)(C)c2cc(O)ccc21 | 3.2 | High | 3.2 | no cross-reactivity | – | – | – | –
Cc1cc(C=O)ccc1-c1c2cc(F)c(=O)cc-2oc2cc(O)c(F)cc12 [AlDeSense] | – | – | – | – | 0.88 | 9.0 | 11.3 | significantly brighter
